# Source: patent EP4483954A1 (Masarykova Univerzita, priority 2023, dated 2025)
# Legend:
# Assay type in all cases: biochemical
# Haspin (h) = molecular target: T1, Haspin (h) (Homo sapiens, UniProt Q8TF76); experiment: radiometric kinase assay (KinaseProfiler, Eurofins), Haspin; conditions: in vitro radiometric kinase assay, tested at 1 nM to 10 000 nM, no pre-incubation; read-out: inhibitory activities (IC50 values) Haspin
# T1 construct: purchased Eurofins (KinaseProfiler)
# T1 sequence (Q8TF76 1-798): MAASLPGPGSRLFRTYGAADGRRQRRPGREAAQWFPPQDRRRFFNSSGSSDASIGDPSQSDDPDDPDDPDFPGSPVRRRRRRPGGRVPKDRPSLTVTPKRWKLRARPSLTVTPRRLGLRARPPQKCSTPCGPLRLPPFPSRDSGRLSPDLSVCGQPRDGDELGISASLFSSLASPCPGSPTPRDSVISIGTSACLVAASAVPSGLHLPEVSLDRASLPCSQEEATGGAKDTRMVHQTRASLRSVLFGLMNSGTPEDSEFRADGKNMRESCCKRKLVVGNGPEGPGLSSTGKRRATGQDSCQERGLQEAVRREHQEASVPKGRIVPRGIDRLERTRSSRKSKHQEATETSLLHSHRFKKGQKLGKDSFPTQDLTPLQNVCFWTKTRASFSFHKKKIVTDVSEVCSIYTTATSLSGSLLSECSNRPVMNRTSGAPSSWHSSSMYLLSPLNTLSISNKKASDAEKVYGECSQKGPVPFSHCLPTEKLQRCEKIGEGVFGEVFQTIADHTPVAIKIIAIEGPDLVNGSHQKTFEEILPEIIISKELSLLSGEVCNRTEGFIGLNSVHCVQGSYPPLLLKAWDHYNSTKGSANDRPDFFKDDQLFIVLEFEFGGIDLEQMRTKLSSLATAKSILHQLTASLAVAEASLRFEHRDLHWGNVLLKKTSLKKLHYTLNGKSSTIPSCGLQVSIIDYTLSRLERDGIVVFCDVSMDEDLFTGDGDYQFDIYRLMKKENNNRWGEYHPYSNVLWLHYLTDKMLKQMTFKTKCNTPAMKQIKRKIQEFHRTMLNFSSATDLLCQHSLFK
# In short: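 Human Haspin in 8 mM MOPS pH 7.0 with 500 µM RARTLSFAEPG, 10 mM Mg acetate and γ-33P-ATP; compound added without preincubation. Reaction ran 40 min at room temperature, then filter-bound 33P was counted. Nine concentrations from 1 to 10 000 nM gave % remaining activity versus DMSO, and IC50 came from curve fit.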
# PIM1 (h) = molecular target: T2, PIM1 (h) (Homo sapiens, UniProt P11309); experiment: radiometric kinase assay (KinaseProfiler, Eurofins), PIM1; conditions: in vitro radiometric kinase assay, tested at 1 nM to 10 000 nM, no pre-incubation; read-out: inhibitory activities (IC50 values) PIM1
# T2 construct: purchased Eurofins (KinaseProfiler)
# Protocol: (§1) The compounds were profiled in the radiometric assays (KinaseProfiler, Eurofins).
# (§2) Briefly, kinases were diluted in the buffer shown below prior to addition to the reaction mix: • CDKL3, TAF1L: 20 mM Tris/HCl pH 8.5, 0.2 mM EDTA, 0.1% β-mercaptoethanol, 0.01% Brij-35, 5% glycerol, 1 mg/ml BSA; • Haspin: 15 mM MOPS, 0.75 mM EDTA, 0.0075% Brij-35, 3.75% Glycerol, 150 mM NaCl, 0.1% β-mercaptoethanol, 1 mg/mLBSA; • CDKL4, CLK2, PIM1, TRB2: […], 1 mM EDTA, 0.01% Brij-35, 5% Glycerol, 0.1% β-mercaptoethanol, 1 mg/mL BSA.
# (§3) All compounds were prepared to 50x final assay concentration in 100% DMSO. This working stock of the compound was added to the assay well as the first component in the reaction, followed by the remaining components as detailed in the general assay protocols below. There was no pre-incubation step between the compound and the kinase prior to initiation of the reaction.
# PIM1 (h) was incubated with 8 mM MOPS pH 7.0, 0.2 mM EDTA, 100 µM KKRNRTLTV (SEQ ID NO. 4), 10 mM magnesium acetate and γ-^33P-ATP (specific activity and concentration as required). The reaction was initiated by the addition of the Mg/ATP mix. After incubation for 40 minutes at room temperature, the reaction was stopped by the addition of phosphoric acid to a concentration of 0.5%. An aliquot of the reaction was then spotted onto a filter and washed four times for 4 minutes in 0.425% phosphoric acid and once in methanol prior to drying and scintillation counting.
# (§4) Kinase activity data were expressed as the percent remaining kinase activity in tested samples compared to the vehicle (DMSO) reactions. The compounds were tested at the following concentrations: 1 nM, 3 nM, 10 nM, 30 nM, 100 nM, 300 nM, 1000 nM, 3000 nM, and 10 000 nM; IC50 values and curve fits were then obtained.
# CDKL4(h) = molecular target: T3, CDKL4(h) (Homo sapiens, UniProt Q5MAI5); experiment: radiometric kinase assay (KinaseProfiler, Eurofins), CDKL4; conditions: in vitro radiometric kinase assay, tested at 1 nM to 10 000 nM, no pre-incubation; read-out: inhibitory activities (IC50 values) CDKL4
# T3 construct: purchased Eurofins (KinaseProfiler)
# Protocol: as §1, §2, §3
# (§5) CDKL4(h) was incubated with 8 mM MOPS pH 7.0, 0.2 mM EDTA, 250 µM RRRFRPASPLRGPPK (SEQ ID NO. 1), 10 mM magnesium acetate and γ-^33P-ATP (specific activity and concentration as required). The reaction was initiated by the addition of the Mg/ATP mix. After incubation for 120 minutes at room temperature, the reaction was stopped by the addition of phosphoric acid to a concentration of 0.5%. An aliquot of the stopped reaction was spotted onto a filter and washed four times for 4 minutes in 0.425% phosphoric acid and once in methanol prior to drying and scintillation counting.
# as §4
# CDKL3(h) = molecular target: T4, CDKL3(h) (Homo sapiens, UniProt Q8IVW4); experiment: radiometric kinase assay (KinaseProfiler, Eurofins), CDKL3; conditions: in vitro radiometric kinase assay, tested at 1 nM to 10 000 nM, no pre-incubation; read-out: inhibitory activities (IC50 values) CDKL3
# T4 construct: purchased Eurofins (KinaseProfiler)
# Protocol: as §1, §2, §3
# as §5, with “CDKL3(h)” for “CDKL4(h)”
# as §4
# T2 sequence (P11309 whole entry): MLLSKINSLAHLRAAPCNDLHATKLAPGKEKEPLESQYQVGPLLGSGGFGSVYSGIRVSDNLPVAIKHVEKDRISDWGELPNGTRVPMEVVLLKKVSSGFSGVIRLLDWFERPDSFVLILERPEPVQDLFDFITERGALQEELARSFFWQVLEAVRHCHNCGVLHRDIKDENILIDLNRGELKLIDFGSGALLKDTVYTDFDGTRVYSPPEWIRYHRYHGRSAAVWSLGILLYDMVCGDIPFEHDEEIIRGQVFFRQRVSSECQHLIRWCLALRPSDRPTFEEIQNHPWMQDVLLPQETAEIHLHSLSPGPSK
# T3 sequence (Q5MAI5 whole entry): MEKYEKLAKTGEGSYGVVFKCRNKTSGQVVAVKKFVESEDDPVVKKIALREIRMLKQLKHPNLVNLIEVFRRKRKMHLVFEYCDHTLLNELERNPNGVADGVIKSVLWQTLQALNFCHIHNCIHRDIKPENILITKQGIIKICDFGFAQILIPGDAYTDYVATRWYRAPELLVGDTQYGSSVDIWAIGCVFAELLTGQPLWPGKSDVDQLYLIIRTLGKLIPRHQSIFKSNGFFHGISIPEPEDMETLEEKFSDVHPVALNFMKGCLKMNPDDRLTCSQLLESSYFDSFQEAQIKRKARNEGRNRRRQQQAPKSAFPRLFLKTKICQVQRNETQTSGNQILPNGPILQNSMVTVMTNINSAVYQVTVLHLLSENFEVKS
# T4 sequence (Q8IVW4 whole entry): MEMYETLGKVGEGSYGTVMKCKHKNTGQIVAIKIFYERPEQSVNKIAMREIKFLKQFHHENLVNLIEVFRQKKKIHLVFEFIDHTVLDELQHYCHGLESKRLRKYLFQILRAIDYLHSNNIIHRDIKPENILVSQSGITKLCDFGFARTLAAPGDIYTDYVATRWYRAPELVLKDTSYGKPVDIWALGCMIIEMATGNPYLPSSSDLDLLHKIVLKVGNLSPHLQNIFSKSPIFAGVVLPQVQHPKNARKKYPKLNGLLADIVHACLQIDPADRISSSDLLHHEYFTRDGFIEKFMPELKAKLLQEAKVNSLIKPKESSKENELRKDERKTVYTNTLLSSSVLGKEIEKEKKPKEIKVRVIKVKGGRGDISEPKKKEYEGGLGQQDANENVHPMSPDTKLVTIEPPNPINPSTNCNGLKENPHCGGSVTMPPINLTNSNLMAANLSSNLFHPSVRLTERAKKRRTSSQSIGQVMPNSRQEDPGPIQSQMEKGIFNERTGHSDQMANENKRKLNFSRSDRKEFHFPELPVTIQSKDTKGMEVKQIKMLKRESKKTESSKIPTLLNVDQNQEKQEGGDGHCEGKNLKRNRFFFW
SMILES,IC50 (Haspin (h)),IC50 (PIM1 (h)),IC50 (CDKL4(h)),IC50 (CDKL3(h))
"Cn1cc(-c2csc3ccc(Oc4ccccc4)nc23)cn1 [Preparative Example 139, 3-(1-methyl-1H-pyrazol-4-yl)-5-phenoxythieno[3,2-b]pyridine]",100 to 499 nM,500 to 3000 nM,500 to 3000 nM,3000 to 10000 nM
"Cn1nccc1-c1ccc2scc(-c3ccncc3)c2n1 [Preparative Example 90, 5-(1-methyl-1H-pyrazol-5-yl)-3-(pyridin-4-yl)thieno[3,2-b]pyridine]",500 to 3000 nM,3000 to 10000 nM,500 to 3000 nM,500 to 3000 nM
"Cc1sc2ccc(-c3cnn(C)c3)nc2c1-c1ccncc1 [Preparative Example 142, 2-methyl-5-(1-methyl-1H-pyrazol-4-yl)-3-(pyridin-4-yl)thieno[3,2-b]pyridine]",500 to 3000 nM,3000 to 10000 nM,500 to 3000 nM,500 to 3000 nM
"Cn1cc(-c2ccc3scc(C4=CCNCC4)c3n2)cn1 [Preparative Example 9, 5-(1-methyl-1H-pyrazol-4-yl)-3-(1,2,3,6-tetrahydropyridin-4-yl)-thieno[3.2-b]pyridine]",500 to 3000 nM,500 to 3000 nM,500 to 3000 nM,500 to 3000 nM
"Cn1cc(-c2ccc3scc(-c4ccnc(F)c4)c3n2)cn1 [Preparative Example 22, 3-(2-fluoropyridin-4-yl)-5-(1-methyl-1H-pyrazol-4-yl)thieno[3,2-b]pyridine]",100 to 499 nM,100 to 499 nM,100 to 499 nM,100 to 499 nM
"Cc1cc(-c2csc3ccc(-c4cnn(C)c4)nc23)cc(C)n1 [Preparative Example 30, 3-(2,6-dimethylpyridin-4-yl)-5-(1-methyl-1H-pyrazol-4-yl)thieno-[3,2-b]pyridine]",100 to 499 nM,100 to 499 nM,100 to 499 nM,500 to 3000 nM
"Cn1cc(-c2ccc3scc(-c4ccnc(CN)c4)c3n2)cn1 [Preparative Example 28, (4-(5-(1-methyl-1H-pyrazol-4-yl)thieno[3,2-b]pyridin-3-yl)pyridin-2-yl)methanamine]",20 to 99 nM,100 to 499 nM,500 to 3000 nM,500 to 3000 nM
"Cc1nsc(-c2csc3ccc(-c4cnn(C)c4)nc23)n1 [Preparative Example 71, 3-(3-methyl-1,2,4-thiadiazol-5-yl)-5-(1-methyl-1H-pyrazol-4-yl)thieno[3,2-b]pyridine]",20 to 99 nM,100 to 499 nM,100 to 499 nM,100 to 499 nM
"Cn1cc(-c2ccc3scc(-c4ccncc4C#N)c3n2)cn1 [Preparative Example 34, 4-(5-(1-methyl-1H-pyrazol-4-yl)thieno[3,2-b]pyridin-3-yl)nicotino-nitrile]",500 to 3000 nM,500 to 3000 nM,3000 to 10000 nM,500 to 3000 nM
"Cn1ccc(Nc2ccc3scc(-c4ccncc4)c3n2)n1 [Preparative Example 99, N-(1-methyl-1H-pyrazol-3-yl)-3-(pyridin-4-yl)thieno[3,2-b]pyridin-5-amine]",20 to 99 nM,500 to 3000 nM,500 to 3000 nM,100 to 499 nM
"Cn1cc(-c2ccc3scc(-c4ccncc4)c3n2)nn1 [Preparative Example 93, 5-(1-methyl-1H-1,2,3-triazol-4-yl)-3-(pyridin-4-yl)thieno[3,2-b]pyridine]",500 to 3000 nM,500 to 3000 nM,3000 to 10000 nM,3000 to 10000 nM
"Cn1cc(-c2ccc3scc(-c4ccccc4)c3n2)cn1 [Preparative Example 2, 5-(1-methyl-1H-pyrazol-4-yl)-3-phenylthieno[3,2-b]pyridine]",100 to 499 nM,500 to 3000 nM,100 to 499 nM,100 to 499 nM
Cn1cc(-c2ccc3scc(-c4ccnc(C#N)c4)c3n2)cn1,100 to 499 nM,500 to 3000 nM,100 to 499 nM,100 to 499 nM
"c1ccc(Cn2cc(-c3ccc4scc(-c5ccncc5)c4n3)cn2)cc1 [Preparative Example 81, 5-(1-benzyl-1H-pyrazol-4-yl)-3-(pyridin-4-yl)thieno[3,2-b]pyridine]",100 to 499 nM,100 to 499 nM,500 to 3000 nM,500 to 3000 nM
"Cn1cc(-c2ccc3scc(-c4ccncc4)c3n2)c(NC(=O)OC(C)(C)C)n1 [Preparative Example 83, tert-butyl(1-methyl-4-(3-(pyridin-4-yl)thieno[3,2-b]pyridin-5-yl)-1H-pyrazol-3-yl)carbamate]",3000 to 10000 nM,3000 to 10000 nM,500 to 3000 nM,500 to 3000 nM
